One data set concerns CD30+ cell lines. The following applies: in vitro; cited from earlier work.
In data set [1] the test system is Hodgkin disease xenograft. As to conditions: SCID mouse xenograft models of Hodgkin disease; cited from earlier work.
In data set [2] the test system is memory CD4 T cells. Briefly: Free MMAE titration on activated T cell populations, viable cell counts. As to conditions: CD3/CD28 beads and IL-2 (10 ng/ml), 4 days, cell counts relative to untreated control. Type of data set: cell-based. The protocol:
(§1) To evaluate the effect of free MMAE on the various T cell populations, naïve (CD45RA+, CD45RO−) and memory (CD45RA−, CD45RO+) CD4 and CD8 T cells and CD25^hi CD127^lo T regulatory cells were enriched from healthy donor leukopaks and activated with CD3/CD28 beads and IL-2 (10 ng/ml) in round-bottom 96-well tissue culture plates for 4 days with a titration of free monomethyl auristatin E (MMAE). […] Data are represented as cell counts relative to untreated control.

Data set [3] relates to T regulatory cells (Treg). The description is as above. Type of data set: cell-based. The following applies: CD3/CD28 beads and IL-2 (10 ng/ml), 4 days, cell counts relative to untreated control. On the procedure:
as §1

In the next data set the test system is naïve CD8 T cells. The description is as above. Type of data set: cell-based. As to conditions: Naïve CDS; CD3/CD28 beads and IL-2 (10 ng/ml), 4 days; cell counts relative to untreated control. On the procedure:
as §1

For the next data set, the system named is naïve CD4 T cells. The description is as above. Type of data set: cell-based. As to conditions: CD3/CD28 beads and IL-2 (10 ng/ml), 4 days, cell counts relative to untreated control. On the procedure: as §1
The subject of another data set is memory CD8 T cells. Described as above. Type of data set: cell-based. As to conditions: Memory CDS; CD3/CD28 beads and IL-2 (10 ng/ml), 4 days; cell counts relative to untreated control. The protocol:
as §1

The next data set has as its target CYP3A4 (Homo sapiens, UniProt P08684). The following applies: cited from earlier work.
The target of data set [4] is permeability glycoprotein (Pgp) (Homo sapiens, UniProt P08183). The following applies: cited from earlier work.
Chain of permeability glycoprotein (Pgp) (P08183 whole entry): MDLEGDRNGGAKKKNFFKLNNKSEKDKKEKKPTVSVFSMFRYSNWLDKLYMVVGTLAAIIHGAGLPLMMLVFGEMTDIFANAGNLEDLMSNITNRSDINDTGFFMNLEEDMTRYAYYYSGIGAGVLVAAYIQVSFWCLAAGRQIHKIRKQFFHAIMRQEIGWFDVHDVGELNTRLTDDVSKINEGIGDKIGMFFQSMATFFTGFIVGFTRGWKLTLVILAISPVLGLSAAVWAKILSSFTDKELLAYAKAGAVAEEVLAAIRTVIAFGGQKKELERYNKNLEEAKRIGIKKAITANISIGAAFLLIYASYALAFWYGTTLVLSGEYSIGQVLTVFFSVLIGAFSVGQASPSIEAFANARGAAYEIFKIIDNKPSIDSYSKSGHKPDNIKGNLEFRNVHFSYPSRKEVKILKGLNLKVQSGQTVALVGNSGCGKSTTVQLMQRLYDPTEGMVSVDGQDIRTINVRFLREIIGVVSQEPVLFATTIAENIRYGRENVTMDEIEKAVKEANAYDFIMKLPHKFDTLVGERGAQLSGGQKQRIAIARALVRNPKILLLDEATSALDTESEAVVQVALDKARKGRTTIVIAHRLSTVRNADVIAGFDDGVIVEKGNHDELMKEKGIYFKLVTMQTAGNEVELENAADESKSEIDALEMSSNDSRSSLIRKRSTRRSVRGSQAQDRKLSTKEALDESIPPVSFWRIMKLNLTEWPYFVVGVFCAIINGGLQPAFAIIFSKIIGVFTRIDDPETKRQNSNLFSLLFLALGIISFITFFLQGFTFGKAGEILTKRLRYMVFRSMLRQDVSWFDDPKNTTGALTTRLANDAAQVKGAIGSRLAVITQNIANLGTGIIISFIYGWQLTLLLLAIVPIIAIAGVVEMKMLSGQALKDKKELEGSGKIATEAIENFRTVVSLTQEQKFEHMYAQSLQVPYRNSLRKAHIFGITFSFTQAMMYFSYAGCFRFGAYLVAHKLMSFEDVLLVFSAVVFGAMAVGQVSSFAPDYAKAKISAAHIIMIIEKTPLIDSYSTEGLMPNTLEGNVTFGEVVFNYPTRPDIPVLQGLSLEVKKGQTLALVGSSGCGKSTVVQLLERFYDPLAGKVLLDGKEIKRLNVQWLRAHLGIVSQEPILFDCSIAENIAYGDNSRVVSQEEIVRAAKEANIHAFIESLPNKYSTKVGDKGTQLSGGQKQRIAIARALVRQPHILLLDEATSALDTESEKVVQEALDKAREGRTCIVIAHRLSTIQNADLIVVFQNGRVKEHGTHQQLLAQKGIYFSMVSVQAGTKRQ
A further data set concerns Tregs. As to conditions: subjects with CD30+ lymphomas; cited from earlier work.
A further data set has as its system Treg. In words: Effect of BV on activated T cell viability (FACS). Type of data set: cell-based. On the procedure:
(§2) To evaluate the effect of BV on activated T cell viability, naïve, memory, and Treg subsets were driven to proliferate in vitro in the presence of BV or control antibody-drug conjugate (ADC). Briefly, T cell subsets were mixed with CD3/CD28 beads (4:1)+IL-2 10 ng/ml in RPMI 10% FCS and distributed −2.0×10^4 cells/well into a 96-well round-bottom plate. A titration of BV or control IgG-MMAE was added to replicate wells, for a final volume of 200 μl, and plates were incubated at 37° C. for 4 days. On the final day of the assay, cells were stained with Zombie® Aqua Viability Dye and a non-competing monoclonal μCD30-PE (Biolegend) for FACS analysis. […] Cell counts are shown as the percent of untreated control.

Data set [5] has as its system memory CD4 T cells. Briefly: Effect of BV on activated T cell viability (FACS). The format is cell-based. On the procedure: as §2
Where [6] appears, read: CD3/CD28 beads + IL-2, BV titration, 4 days, n=4, FIG. 1A.

Non-standard residues stand in square brackets, D forms with d. Residues, ends and D or L forms follow the SMILES beside them. *: point of attachment. Dolaproine = CO[C@@H]([C@@H]1CCCN1)[C@@H](C)C(=O)O; Dil = CC[C@H](C)[C@H](NC)[C@@H](CC(=O)O)OC; X1 = C[C@@H](N*)[C@@H](O)c1ccccc1; NMeV = CN[C@H](C(=O)O)C(C)C

The text below walks through data of patent US20230020999A1, “ANTI-CD30 ANTIBODY-DRUG CONJUGATES AND THEIR USE FOR THE TREATMENT OF HIV INFECTION” (priority 2019, published 2023).

One may read the IC50 as the point on the concentration scale where inhibition reaches its midpoint. The low end stands for greater potency, the high end for weaker potency.

Chain of CYP3A4 (P08684 whole entry): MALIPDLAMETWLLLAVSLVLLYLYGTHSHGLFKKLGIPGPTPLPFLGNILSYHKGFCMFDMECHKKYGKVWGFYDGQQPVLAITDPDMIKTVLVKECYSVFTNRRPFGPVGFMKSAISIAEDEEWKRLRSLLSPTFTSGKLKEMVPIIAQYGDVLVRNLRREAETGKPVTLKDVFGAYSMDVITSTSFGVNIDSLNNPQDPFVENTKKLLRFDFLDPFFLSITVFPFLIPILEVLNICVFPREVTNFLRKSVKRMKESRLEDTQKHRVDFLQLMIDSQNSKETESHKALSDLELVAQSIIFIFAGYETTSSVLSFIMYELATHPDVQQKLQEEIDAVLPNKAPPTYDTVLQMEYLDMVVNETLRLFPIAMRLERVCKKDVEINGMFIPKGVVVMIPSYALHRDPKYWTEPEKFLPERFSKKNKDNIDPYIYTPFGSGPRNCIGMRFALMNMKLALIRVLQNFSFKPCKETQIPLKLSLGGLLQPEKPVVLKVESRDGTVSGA

Turning to cAC10, the “growth of CD30+ cell lines” value with CD30+ cell lines is recorded as “induces growth arrest”. In addition, the antitumor activity result in data set [1] was “pronounced antitumor activity”.

With `CC[C@H](C)[C@@H]([C@@H](CC(=O)N1CCC[C@H]1[C@H](OC)[C@@H](C)C(=O)N[C@H](C)[C@@H](O)c1ccccc1)OC)N(C)C(=O)[C@@H](NC(=O)[C@@H](NC)C(C)C)C(C)C` [MMAE, monomethyl auristatin E] (H-[NMeV]V[Dil][Dolaproine]-X1), the IC50 in the data set on memory CD4 T cells [2] worked out at 0.55 nM; in data set [3], 0.43 nM; in the data set with naïve CD8 T cells it was 1.96 nM; in the data set on naïve CD4 T cells, 1.13 nM; in the data set with memory CD8 T cells, 0.77 nM. Besides, the metabolism result at CYP3A4 was “primarily metabolized by CYP3A4”. In data set [4], the Pgp substrate entry is “known Pgp substrate”.

B1: brentuximab vedotin (conjugate)
VH: QIQLQQSGPEVVKPGASVKISCKASGYTFTDYYITWVKQKPGQGLEWIGWIYPGSGNTKYNEKFKGKATLTVDTSSSTAFMQLSSLTSEDTAVYFCANYGNYWFAYWGQGTQVTVSA
VL: DIVLTQSPASLAVSLGQRATISCKASQSVDFDGDSYMNWYQQKPGQPPKVLIYAASNLESGIPARFSGSGSGTDFTLNIHPVEEEDAATYYCQQSNEDPWTFGGGTKLEIK
For the molecule B1, the “change in Tregs” value in the data set on Tregs is “reduction in Tregs”. Moreover, the “total viable Treg cell numbers” value in the data set on Treg (setting [6]) was “dose-dependent reduction”. Also, the “numbers of viable CD30+ cells” value with Treg (CD30+ Treg, end of 4-day assay, FIG. 1B) is recorded as “enhanced depletion”; with memory CD4 T cells [5] (CD30+ memory CD4 T cells, end of 4-day assay, FIG. 1B) it was “enhanced depletion”. Further, the “total viable memory CD4 T cell numbers” value in the data set with memory CD4 T cells [5] (setting [6]) was “dose-dependent reduction”.
